Data reported in PubChem BioAssay AID1259411 (Chemical Carcinogenesis Research Information System (CCRIS), 2018).
Activity calls are given as the source filed them. No rule for the calls is given here.

Tested on: rodent carcinogenicity bioassays, tumor incidence
Experiment: CCRIS carcinogenicity studies
Summary of the method: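 Archive of carcinogenicity, mutagenicity, tumor promotion and tumor inhibition results drawn from journals, NCI reports and other sources, expert-reviewed; covers 1985-2011 and is no longer updated.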

In the case of `CC(O)CNC(=O)N(CCCl)N=O` (stereo not drawn), the carcinogen call (Species: RAT, Strain/Sex: F344/FEMALE, Route: ORAL, Dose: 0, 18 MG/L IN DRINKING WATER 5 D/WK FOR 30 WK (STUDY DURATION: LIFETIME)) is reported as “inactive; negative” and the carcinogen call (Species: RAT, Strain/Sex: F344/MALE, Route: ORAL, Dose: 0, 18 MG/L IN DRINKING WATER 5 D/WK FOR 30 WK (STUDY DURATION: LIFETIME), Tumor Site: Type of Lesion: LIVER: TUMOR, LUNG: TUMOR) is reported as “active; positive”.
`CC(=O)OCc1c2ccccc2c2ccc3cccc4ccc1c2c43` was tested, and the carcinogen call (Species: MOUSE, Strain/Sex: B6C3F1/MALE, Route: INTRAPERITONEAL, Dose: 0, 0.0025, 0.005 UMOL/G ONCE AT 12 DAYS OF AGE (STUDY DURATION: 10 MO), Dose: 0, 0.0025, 0.005 UMOL/G ONCE AT 12 DAYS OF AGE (STUDY DURATION: 10 MO), Tumor Site: Type of Lesion: LIVER: HEPATOMA) was “active; positive”.
With `CN=C(NCc1cnc(Cl)s1)N[N+](=O)[O-]` the carcinogen call (Species: Rat, Strain/Sex: ???/Female (60/group), Route: Oral, Dose: 0, 150, 500, 1,500, 3,000 ppm in diet for 2 yr, Dose: 0, 150, 500, 1,500, 3,000 ppm in diet for 2 yr) was “inactive; negative (study details not given in source; purity 95.2%)” and the carcinogen call (Species: Rat, Strain/Sex: ???/Male (60/group), Route: Oral, Dose: 0, 150, 500, 1,500, 3,000 ppm in diet for 2 yr, Dose: 0, 150, 500, 1,500, 3,000 ppm in diet for 2 yr) was “inactive; negative (study details not given in source; purity 95.2%)”.
In the case of `[Ga]#[As]`, the carcinogen call (Species: MOUSE, Strain/Sex: B6C3F1/FEMALE, Route: INHALATION, Dose: 0, 0.1, 0.5, 1 MG/M3 6 HR/D 5D/WK FOR 106 WK (STUDY DURATION: 106 WK), Dose: 0, 0.1, 0.5, 1 MG/M3 6 HR/D 5D/WK FOR 106 WK (STUDY DURATION: 106 WK)) is reported as “inactive; negative”, the carcinogen call (Species: MOUSE, Strain/Sex: B6C3F1/MALE, Route: INHALATION, Dose: 0, 0.1, 0.5, 1 MG/M3 6 HR/D 5D/WK FOR 105 WK (STUDY DURATION: 105 WK), Dose: 0, 0.1, 0.5, 1 MG/M3 6 HR/D 5D/WK FOR 105 WK (STUDY DURATION: 105 WK)) is reported as “inactive; negative” and the carcinogen call (Species: MOUSE, Strain/Sex: ICR/MALE, Route: INTRAPERITONEAL, Dose: 0, 48, 480 MG/KG AS GALLIUM SUSPENDED IN OLIVE OIL ONCE (STUDY DURATION: 18 MO), Dose: 0, 48, 480 MG/KG AS GALLIUM SUSPENDED IN OLIVE OIL ONCE (STUDY DURATION: 18 MO)) is reported as “inactive; negative”. The carcinogen call (Species: MOUSE, Strain/Sex: ICR/MALE, Route: SUBCUTANEOUS, Dose: 0, 48, 480 MG/KG AS GALLIUM SUSPENDED IN OLIVE OIL ONCE (STUDY DURATION: 18 MO), Dose: 0, 48, 480 MG/KG AS GALLIUM SUSPENDED IN OLIVE OIL ONCE (STUDY DURATION: 18 MO)) was “inactive; negative”, the carcinogen call (Species: RAT, Strain/Sex: F344/N/FEMALE, Route: INHALATION, Dose: 0, 0.01, 0.1, 1 MG/M3 6 HR/D 5D/WK FOR 105 WK (STUDY DURATION: 105 WK), Dose: 0, 0.01, 0.1, 1 MG/M3 6 HR/D 5D/WK FOR 105 WK (STUDY DURATION: 105 WK), Tumor Site: Type of Lesion: LUNG: ALVEOLAR/BRONCHIOLAR ADENOMA) was “active; positive” and the carcinogen call (Species: RAT, Strain/Sex: F344/N/MALE, Route: INHALATION, Dose: 0, 0.01, 0.1, 1 MG/M3 6 HR/D 5D/WK FOR 105 WK (STUDY DURATION: 105 WK), Dose: 0, 0.01, 0.1, 1 MG/M3 6 HR/D 5D/WK FOR 105 WK (STUDY DURATION: 105 WK)) was “inactive; negative”.
For `C[C@@H]1O[C@@H]1Cl`, the carcinogen call (Species: MOUSE, Strain/Sex: ICR/FEMALE, Route: DERMAL, Dose: 10 MG IN 0.1 ML ACETONE 3/WK FOR LIFE, Tumor Site: Type of Lesion: INTEGUMENTARY SYSTEM (SKIN): PAPILLOMA, SQUAMOUS CELL CARCINOMA) was “active; positive”.
`CC(C)n1c(/C=C/[C@H](O)C[C@H](O)CC(=O)O)c(-c2ccc(F)cc2)c2ccccc21` was tested, and the carcinogen call (Species: MOUSE, Strain/Sex: CD-1/FEMALE (70/GROUP), Route: ORAL (GAVAGE), Dose: 0, 0.3, 15, 30 MG/KG/D IN 1% CARBOXYMETHYLCELLULOSE FOR 85 WK, Dose: 0, 0.3, 15, 30 MG/KG/D IN 1% CARBOXYMETHYLCELLULOSE FOR 85 WK, Tumor Site: Type of Lesion: FORESTOMACH: SQUAMOUS PAPILLOMAS) was “active; positive”, the carcinogen call (Species: MOUSE, Strain/Sex: CD-1/FEMALE (80/GROUP), Route: ORAL (GAVAGE), Dose: 0, 50, 150, 350 MG/KG/D IN 1% CARBOXYMETHYLCELLULOSE FOR 93 WK, Dose: 0, 50, 150, 350 MG/KG/D IN 1% CARBOXYMETHYLCELLULOSE FOR 93 WK) was “inactive; negative” and the carcinogen call (Species: MOUSE, Strain/Sex: CD-1/FEMALE, Route: GAVAGE, Dose: 0, 0.3, 15, 30 MG/KG/D FOR 52 OR 85 WK (STUDY DURATION: 86 WK), Dose: 0, 0.3, 15, 30 MG/KG/D FOR 52 OR 85 WK (STUDY DURATION: 86 WK), Tumor Site: Type of Lesion: FORESTOMACH: PAPILLOMA) was “active; positive”. The carcinogen call (Species: MOUSE, Strain/Sex: CD-1/FEMALE, Route: GAVAGE, Dose: 0, 50, 150, 350 MG/KG/D FOR 52 OR 84 WK (HIGH DOSE GROUP TERMINATED IN WK 23) (STUDY DURATION: 93 WK), Dose: 0, 50, 150, 350 MG/KG/D FOR 52 OR 84 WK (HIGH DOSE GROUP TERMINATED IN WK 23) (STUDY DURATION: 93 WK)) was “inactive; negative”, the carcinogen call (Species: MOUSE, Strain/Sex: CD-1/MALE (70/GROUP), Route: ORAL (GAVAGE), Dose: 0, 0.3, 15, 30 MG/KG/D IN 1% CARBOXYMETHYLCELLULOSE FOR 85 WK, Dose: 0, 0.3, 15, 30 MG/KG/D IN 1% CARBOXYMETHYLCELLULOSE FOR 85 WK) was “inactive; negative” and the carcinogen call (Species: MOUSE, Strain/Sex: CD-1/MALE (80/GROUP), Route: ORAL (GAVAGE), Dose: 0, 50, 150, 350 MG/KG/D IN 1% CARBOXYMETHYLCELLULOSE FOR 84 WK, Dose: 0, 50, 150, 350 MG/KG/D IN 1% CARBOXYMETHYLCELLULOSE FOR 84 WK) was “inactive; negative”. For the same compound, the carcinogen call (Species: MOUSE, Strain/Sex: CD-1/MALE, Route: GAVAGE, Dose: 0, 0.3, 15, 30 MG/KG/D FOR 52 OR 85 WK (STUDY DURATION: 86 WK), Dose: 0, 0.3, 15, 30 MG/KG/D FOR 52 OR 85 WK (STUDY DURATION: 86 WK)) was “inactive; negative”, the carcinogen call (Species: MOUSE, Strain/Sex: CD-1/MALE, Route: GAVAGE, Dose: 0, 50, 150, 350 MG/KG/D FOR 52 OR 84 WK (HIGH DOSE GROUP TERMINATED IN WK 23) (STUDY DURATION: 84 WK), Dose: 0, 50, 150, 350 MG/KG/D FOR 52 OR 84 WK (HIGH DOSE GROUP TERMINATED IN WK 23) (STUDY DURATION: 84 WK)) was “inactive; negative” and the carcinogen call (Species: RAT, Strain/Sex: CD (SPRAGUE-DAWLEY)/FEMALE (75/GROUP), Route: ORAL (GAVAGE), Dose: 0, 0.03, 0.3, 3 MG/KG/D IN 1% CARBOXYMETHYLCELLULOSE FOR 101 WKS, Dose: 0, 0.03, 0.3, 3 MG/KG/D IN 1% CARBOXYMETHYLCELLULOSE FOR 101 WKS) was “inactive; negative”. For the same compound, the carcinogen call (Species: RAT, Strain/Sex: CD (SPRAGUE-DAWLEY)/FEMALE (75/GROUP), Route: ORAL (GAVAGE), Dose: 0, 6, 9, 18-24 MG/KG/D IN 1% CARBOXYMETHYLCELLULOSE FOR 104 WKS, Dose: 0, 6, 9, 18-24 MG/KG/D IN 1% CARBOXYMETHYLCELLULOSE FOR 104 WKS) was “inactive; negative”, the carcinogen call (Species: RAT, Strain/Sex: CD (SPRAGUE-DAWLEY)/MALE (75/GROUP), Route: ORAL (GAVAGE), Dose: 0, 0.03, 0.3, 3 MG/KG/D IN 1% CARBOXYMETHYLCELLULOSE FOR 95 WKS, Dose: 0, 0.03, 0.3, 3 MG/KG/D IN 1% CARBOXYMETHYLCELLULOSE FOR 95 WKS) was “inactive; negative” and the carcinogen call (Species: RAT, Strain/Sex: CD (SPRAGUE-DAWLEY)/MALE (75/GROUP), Route: ORAL (GAVAGE), Dose: 0, 6, 9, 18-24 MG/KG/D IN 1% CARBOXYMETHYLCELLULOSE FOR 104 WKS, Dose: 0, 6, 9, 18-24 MG/KG/D IN 1% CARBOXYMETHYLCELLULOSE FOR 104 WKS, Tumor Site: Type of Lesion: THYROID: FOLLICULAR ADENOMA (11/75)) was “active; positive”. For the same compound, the carcinogen call (Species: RAT, Strain/Sex: STRAIN-CD/FEMALE, Route: GAVAGE, Dose: 0, 0.03, 0.3, 3 MG/KG/D FOR 95 WK (STUDY DURATION: 114 WK), Dose: 0, 0.03, 0.3, 3 MG/KG/D FOR 95 WK (STUDY DURATION: 114 WK)) was “inactive; negative”, the carcinogen call (Species: RAT, Strain/Sex: STRAIN-CD/FEMALE, Route: GAVAGE, Dose: 0, 6, 9, 18-24 MG/KG/D FOR 104 WK (STUDY DURATION: 104 WK), Dose: 0, 6, 9, 18-24 MG/KG/D FOR 104 WK (STUDY DURATION: 104 WK)) was “inactive; negative” and the carcinogen call (Species: RAT, Strain/Sex: STRAIN-CD/MALE, Route: GAVAGE, Dose: 0, 0.03, 0.3, 3 MG/KG/D FOR 95 WK (STUDY DURATION: 114 WK), Dose: 0, 0.03, 0.3, 3 MG/KG/D FOR 95 WK (STUDY DURATION: 114 WK)) was “inactive; negative”. The carcinogen call (Species: RAT, Strain/Sex: STRAIN-CD/MALE, Route: GAVAGE, Dose: 0, 6, 9, 18-24 MG/KG/D FOR 104 WK (STUDY DURATION: 104 WK), Dose: 0, 6, 9, 18-24 MG/KG/D FOR 104 WK (STUDY DURATION: 104 WK)) was “inactive; negative”.
